Experimental data published in PubChem BioAssay (NCI).
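Five concentrations, 48 hours, 96-well plates. At the GI50, growth is halved. TGI marks complete inhibition of growth.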

How the values were obtained:
Test in all cases: NCI tumour cell line growth inhibition, 48 h
CAKI-1 renal = test system: CAKI-1 renal
NCI-H226 lung = test system: NCI-H226 lung
A549 NSCLC = test system: A549 NSCLC
DU-145 prostate = test system: DU-145 prostate
OVCAR-3 ovarian = test system: OVCAR-3 ovarian
UO-31 renal = test system: UO-31 renal
IGROV1 ovarian = test system: IGROV1 ovarian
HCT-15 colon = test system: HCT-15 colon
A498 renal = test system: A498 renal
HCC-2998 colon = test system: HCC-2998 colon

| SMILES | TGI (CAKI-1 renal) | TGI (NCI-H226 lung) | TGI (A549 NSCLC) | TGI (DU-145 prostate) | TGI (OVCAR-3 ovarian) | TGI (UO-31 renal) | TGI (IGROV1 ovarian) | TGI (HCT-15 colon) | TGI (A498 renal) | TGI (HCC-2998 colon) | GI50 (DU-145 prostate) | GI50 (OVCAR-3 ovarian) | GI50 (IGROV1 ovarian) | GI50 (HCC-2998 colon) | GI50 (CAKI-1 renal) | GI50 (NCI-H226 lung) | GI50 (A549 NSCLC) | GI50 (UO-31 renal) | GI50 (A498 renal) |
| --- | --- | --- | --- | --- | --- | --- | --- | --- | --- | --- | --- | --- | --- | --- | --- | --- | --- | --- | --- |
| N#C/C(C(=O)Nc1ccc(Cl)cc1)=C(/N)N1CCCC1 | > 100 µM | > 100 µM | > 100 µM | > 100 µM | > 100 µM | > 100 µM | > 100 µM | > 100 µM | > 100 µM | > 100 µM | – | – | – | – | – | – | – | – | – |
| O=P(O)(O)c1ccccc1Oc1ccccc1 | > 100 µM | > 100 µM | > 100 µM | > 100 µM | > 100 µM | > 100 µM | > 100 µM | > 100 µM | > 100 µM | > 100 µM | – | – | – | – | – | – | – | – | – |
| OCCOCn1nncc1Cn1ncc2c(SCc3ccccc3)ncnc21 | > 100 µM | > 100 µM | > 100 µM | > 100 µM | > 100 µM | > 100 µM | > 100 µM | > 100 µM | > 100 µM | > 100 µM | – | – | – | – | – | – | – | – | – |
| CC1(C)OCC2OC3([C@@H]4OC(C)(C)O[C@H]4CO)OC(C)(C)OC3C2O1 (stereo partly drawn) | > 100 µM | > 100 µM | > 100 µM | > 100 µM | > 100 µM | > 100 µM | > 100 µM | > 100 µM | > 100 µM | > 100 µM | – | – | – | – | – | – | – | – | – |
| CSc1cc(=O)n2c3ccccc3c3ccnc1c32 | – | > 100 µM | > 100 µM | – | > 100 µM | > 100 µM | > 79.1 µM | > 100 µM | > 100 µM | > 100 µM | – | – | – | – | – | – | – | – | – |
| COc1ccc(-c2c3c(n(C4OC(CO)C(O)C(O)C4O)c(=S)c2C#N)CCC3)cc1 (stereo not drawn) | > 100 µM | – | > 100 µM | > 100 µM | 69.6 µM | > 100 µM | > 100 µM | > 100 µM | – | > 100 µM | – | – | – | – | – | – | – | – | – |
| C1=C2C3=[N+](CCCCC3)CC2Cc2ccsc21 (stereo not drawn) | > 100 µM | > 100 µM | > 100 µM | > 100 µM | > 100 µM | > 100 µM | > 100 µM | > 100 µM | > 100 µM | – | – | – | – | – | – | – | – | – | – |
| COc1cc2cc(C(=O)N3C[C@H](CCl)c4c3cc(N)c3ccccc43)[nH]c2c(OC)c1OC | < 0.005 µM | – | > 50 µM | < 0.005 µM | 0.936 µM | – | 0.393 µM | > 50 µM | 0.0318 µM | < 0.005 µM | < 5 nM | 5 nM | 5 nM | < 5 nM | – | – | – | – | – |
| NCCCCNCCCNC(=O)c1nc(-c2nc(CCN)sc2Cl)sc1Cl | > 100 µM | > 100 µM | > 100 µM | – | > 100 µM | > 100 µM | > 100 µM | > 100 µM | > 100 µM | > 100 µM | – | – | – | – | – | – | – | – | – |
| COC(=O)[C@@H]1CCCCC[C@H]2C(CO)=C(C)C(=O)C12 (stereo partly drawn) | > 100 µM | > 100 µM | > 100 µM | – | – | > 100 µM | > 100 µM | > 100 µM | > 100 µM | > 100 µM | – | – | – | – | – | – | – | – | – |
| O=C1C=CC(=O)N1n1c(-c2ccccc2)n[nH]c1=O | > 100 µM | > 100 µM | > 100 µM | > 100 µM | > 100 µM | – | > 100 µM | > 100 µM | > 100 µM | > 100 µM | – | – | – | – | – | – | – | – | – |
| Cc1cc2c(O)c(c1)CN(CC(=O)O)Cc1cc(C)cc(c1O)CN(CC(=O)O)Cc1cc(C)cc(c1O)CN(CC(=O)O)C2 | > 100 µM | > 100 µM | > 100 µM | > 100 µM | > 100 µM | > 100 µM | – | > 100 µM | > 100 µM | > 100 µM | – | – | – | – | – | – | – | – | – |
| COc1ccc(OC2OC(CO)C(OCc3ccccc3)C(OCc3ccccc3)C2OCc2ccccc2)cc1 (stereo not drawn) | > 100 µM | > 100 µM | > 100 µM | > 100 µM | > 100 µM | > 100 µM | > 100 µM | – | > 100 µM | > 100 µM | – | – | – | – | – | – | – | – | – |
| CN(C)CCNC(=O)c1cc(Cl)cc2ccc(-c3ccccc3)nc12 | 8.56 µM | 7.02 µM | 12.4 µM | – | 15.8 µM | 4.76 µM | 14.2 µM | 9.49 µM | 15.8 µM | 13.8 µM | – | – | – | – | – | – | – | – | – |
| O=c1nc2c(c(-c3ccc(Br)cc3)[nH]1)COC/C2=C\c1ccc(Br)cc1 | > 50 µM | > 50 µM | – | > 50 µM | > 50 µM | > 50 µM | > 50 µM | > 50 µM | > 50 µM | > 50 µM | – | – | – | – | – | – | – | – | – |
| CC(C)N1CC2CC(CN(C(=O)c3ccccc3)C2)C1 | > 100 µM | > 100 µM | > 100 µM | – | > 100 µM | > 100 µM | > 100 µM | > 100 µM | > 100 µM | > 100 µM | – | – | – | – | – | – | – | – | – |
| O=c1cc(-c2ccncc2)[nH]c2cc3c(cc12)OCO3 | – | > 100 µM | > 100 µM | > 100 µM | > 100 µM | > 100 µM | > 100 µM | > 100 µM | > 100 µM | > 100 µM | – | – | – | – | – | – | – | – | – |
| Cc1ccc(C(=O)N/N=C(\N=Nc2ccccc2)c2ccc(N(C)C)cc2)cc1 | > 100 µM | > 100 µM | > 100 µM | > 100 µM | > 100 µM | > 100 µM | > 100 µM | > 100 µM | – | > 100 µM | – | – | – | – | – | – | – | – | – |
| O=C1C=CC=C/C1=C1\N=C(c2ccccc2OCC(=O)c2ccccc2)SS1 | > 100 µM | > 100 µM | > 100 µM | – | > 100 µM | > 100 µM | > 100 µM | > 100 µM | > 100 µM | > 100 µM | – | – | – | – | – | – | – | – | – |
| CO[C@H]1SC[C@H](OC(C)=O)[C@H](OC(C)=O)[C@H]1OC(C)=O | > 100 µM | > 100 µM | > 100 µM | > 100 µM | > 100 µM | > 100 µM | > 100 µM | > 100 µM | – | > 100 µM | – | – | – | – | – | – | – | – | – |
| CC(=O)OCC1OC(n2c(-c3ccccc3)c(N=Nc3ccccc3)c(C)c(C#N)c2=S)C(OC(C)=O)C(OC(C)=O)C1OC(C)=O (stereo not drawn) | > 100 µM | – | > 100 µM | > 100 µM | > 100 µM | > 100 µM | > 100 µM | > 100 µM | – | > 100 µM | – | – | – | – | – | – | – | – | – |
| CC[C@H](Nc1nc(C)nc(N)c1C#N)c1nc2cccc(NCc3ccc(C(=O)NO)cc3)c2c(=O)n1-c1ccccc1 | 3.68 µM | 4.44 µM | 4.2 µM | 4.89 µM | 2.96 µM | 2.47 µM | – | – | 2.93 µM | 3.28 µM | 2010 nM | 1480 nM | – | 1670 nM | 1760 nM | 1720 nM | 1920 nM | 1210 nM | 1440 nM |
